Assay [1] addresses T1, HiBit-BRG1 fusion protein (Homo sapiens, UniProt P51532).
T1 construct: expressed in transfected cells
Description: HiBiT-BRG1 cell-based degradation assay (Nano-Glo HiBiT lytic detection, 24 h). To be noted: HeLa cell line expressing HiBit-BRG1 and LgBit; for Dmax: read-out: BRG1 HiBit Degradation Maximum (%); for DC50: read-out: BRMG1 HiBit Degradation IC50. As for the experimental part: Procedure: A stable HeLa cell line expressing HiBiT-BRM was generated. On day 0, 5000 cells were seeded in 40 μL of media into each well of 384-well cell culture plates. […] Subsequently plates were incubated for 24 h in a standard tissue culture incubator and equilibrated at room temperature for 15 minutes. Nano-GB HiBiT Lytic Detection System (Promega N3050) reagent was freshly prepared and 20 ul was added to each well. Upon addition of this LgBit-containing reagent, the HiBiT and LgBiT proteins associate to form the luminescent NanoBiT luciferase. The plates were shaken for 10 minutes at room temperature and the bioluminescence read using an EnVision plate reader (PerkinElmer).
For measurement of BRG1 degradation, a stable HeLa cell line expressing HiBit-BRG1 and LgBit was generated. The same protocol as above was then followed.
(§1) The degradation % was calculated using the following formula: % degradation=100%−100%×(Lumsample−LuMLC)/(LuMHC−LuMLC). DMSO treated cells are employed as High Control (HC) and 2 μM of a known BRM/BRG1 degrader standard treated cells are employed as Low Control (LC).

The next assay has as its target T2, HiBit-BRM fusion protein (Homo sapiens, UniProt P51531).
T2 construct: expressed in transfected cells
As to the kind of experiment: HiBiT-BRM cell-based degradation assay (Nano-Glo HiBiT lytic detection, 24 h). The note with it: HeLa cell line expressing HiBiT-BRM; for DC50: read-out: BRM HiBit Degradation IC50. As for the experimental part:
Procedure: A stable HeLa cell line expressing HiBiT-BRM was generated. On day 0, 5000 cells were seeded in 40 μL of media into each well of 384-well cell culture plates. On day 1, cells were treated with 120 nL DMSO or 120 nL of 3-fold serially DMSO-diluted compounds (10 points in duplicate with 30 μM as final top dose). Subsequently plates were incubated for 24 h in a standard tissue culture incubator and equilibrated at room temperature for 15 minutes. Nano-GB HiBiT Lytic Detection System (Promega N3050) reagent was freshly prepared and 20 ul was added to each well. Upon addition of this LgBit-containing reagent, the HiBiT and LgBiT proteins associate to form the luminescent NanoBiT luciferase. The plates were shaken for 10 minutes at room temperature and the bioluminescence read using an EnVision plate reader (PerkinElmer).
as §1
Background: The HiBiT peptide binds its large partner to form an active luciferase.

These results are taken from patent publication US20250302832A1, “PYRAZINE DERIVATIVES AND USES THEREOF” (FOGHORN THERAPEUTICS INC., priority 2022, published 2025).

T1 sequence (P51532 whole entry, the tested form may be a part): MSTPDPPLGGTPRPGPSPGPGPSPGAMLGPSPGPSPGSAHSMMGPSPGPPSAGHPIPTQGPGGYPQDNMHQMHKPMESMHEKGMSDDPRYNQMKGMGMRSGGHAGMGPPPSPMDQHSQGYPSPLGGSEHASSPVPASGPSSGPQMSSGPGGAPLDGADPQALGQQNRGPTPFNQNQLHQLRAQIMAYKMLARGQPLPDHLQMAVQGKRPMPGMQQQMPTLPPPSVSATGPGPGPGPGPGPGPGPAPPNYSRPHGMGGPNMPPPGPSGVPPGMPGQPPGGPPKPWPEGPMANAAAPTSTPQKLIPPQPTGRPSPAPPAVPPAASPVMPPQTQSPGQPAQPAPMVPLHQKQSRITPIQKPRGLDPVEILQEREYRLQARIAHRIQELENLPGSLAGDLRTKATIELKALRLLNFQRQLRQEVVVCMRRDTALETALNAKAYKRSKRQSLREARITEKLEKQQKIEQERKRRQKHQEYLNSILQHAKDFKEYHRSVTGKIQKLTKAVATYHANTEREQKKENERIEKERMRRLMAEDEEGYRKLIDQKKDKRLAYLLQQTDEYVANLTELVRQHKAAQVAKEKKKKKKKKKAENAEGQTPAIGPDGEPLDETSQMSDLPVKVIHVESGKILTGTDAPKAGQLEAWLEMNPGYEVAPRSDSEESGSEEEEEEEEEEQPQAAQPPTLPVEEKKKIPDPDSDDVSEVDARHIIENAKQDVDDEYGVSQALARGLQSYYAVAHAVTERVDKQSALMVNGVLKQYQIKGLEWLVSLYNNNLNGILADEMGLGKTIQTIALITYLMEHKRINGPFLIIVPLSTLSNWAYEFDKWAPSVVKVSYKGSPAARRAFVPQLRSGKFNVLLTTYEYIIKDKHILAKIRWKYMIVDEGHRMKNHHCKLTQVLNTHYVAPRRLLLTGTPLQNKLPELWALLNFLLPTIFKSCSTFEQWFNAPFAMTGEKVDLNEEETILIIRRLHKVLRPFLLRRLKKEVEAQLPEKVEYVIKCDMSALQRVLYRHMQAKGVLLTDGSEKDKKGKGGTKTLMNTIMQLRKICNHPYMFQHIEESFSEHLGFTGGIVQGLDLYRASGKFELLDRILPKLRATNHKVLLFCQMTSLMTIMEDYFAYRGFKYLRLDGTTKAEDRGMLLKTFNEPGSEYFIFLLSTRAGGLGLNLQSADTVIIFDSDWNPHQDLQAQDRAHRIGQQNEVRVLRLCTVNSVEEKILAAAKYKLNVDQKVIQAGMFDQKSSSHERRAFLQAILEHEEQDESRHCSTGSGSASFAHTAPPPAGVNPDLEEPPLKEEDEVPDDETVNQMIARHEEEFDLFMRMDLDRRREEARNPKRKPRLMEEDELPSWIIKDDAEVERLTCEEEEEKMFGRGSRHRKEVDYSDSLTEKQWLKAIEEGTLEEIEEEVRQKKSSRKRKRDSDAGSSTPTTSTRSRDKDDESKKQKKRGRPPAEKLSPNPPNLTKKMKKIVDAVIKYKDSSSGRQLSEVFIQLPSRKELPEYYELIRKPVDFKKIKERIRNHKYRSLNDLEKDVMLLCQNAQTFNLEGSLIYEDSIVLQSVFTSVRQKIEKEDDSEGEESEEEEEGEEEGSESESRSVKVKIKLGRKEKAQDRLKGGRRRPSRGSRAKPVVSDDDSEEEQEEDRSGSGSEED
T2 sequence (P51531 whole entry, the tested form may be a part): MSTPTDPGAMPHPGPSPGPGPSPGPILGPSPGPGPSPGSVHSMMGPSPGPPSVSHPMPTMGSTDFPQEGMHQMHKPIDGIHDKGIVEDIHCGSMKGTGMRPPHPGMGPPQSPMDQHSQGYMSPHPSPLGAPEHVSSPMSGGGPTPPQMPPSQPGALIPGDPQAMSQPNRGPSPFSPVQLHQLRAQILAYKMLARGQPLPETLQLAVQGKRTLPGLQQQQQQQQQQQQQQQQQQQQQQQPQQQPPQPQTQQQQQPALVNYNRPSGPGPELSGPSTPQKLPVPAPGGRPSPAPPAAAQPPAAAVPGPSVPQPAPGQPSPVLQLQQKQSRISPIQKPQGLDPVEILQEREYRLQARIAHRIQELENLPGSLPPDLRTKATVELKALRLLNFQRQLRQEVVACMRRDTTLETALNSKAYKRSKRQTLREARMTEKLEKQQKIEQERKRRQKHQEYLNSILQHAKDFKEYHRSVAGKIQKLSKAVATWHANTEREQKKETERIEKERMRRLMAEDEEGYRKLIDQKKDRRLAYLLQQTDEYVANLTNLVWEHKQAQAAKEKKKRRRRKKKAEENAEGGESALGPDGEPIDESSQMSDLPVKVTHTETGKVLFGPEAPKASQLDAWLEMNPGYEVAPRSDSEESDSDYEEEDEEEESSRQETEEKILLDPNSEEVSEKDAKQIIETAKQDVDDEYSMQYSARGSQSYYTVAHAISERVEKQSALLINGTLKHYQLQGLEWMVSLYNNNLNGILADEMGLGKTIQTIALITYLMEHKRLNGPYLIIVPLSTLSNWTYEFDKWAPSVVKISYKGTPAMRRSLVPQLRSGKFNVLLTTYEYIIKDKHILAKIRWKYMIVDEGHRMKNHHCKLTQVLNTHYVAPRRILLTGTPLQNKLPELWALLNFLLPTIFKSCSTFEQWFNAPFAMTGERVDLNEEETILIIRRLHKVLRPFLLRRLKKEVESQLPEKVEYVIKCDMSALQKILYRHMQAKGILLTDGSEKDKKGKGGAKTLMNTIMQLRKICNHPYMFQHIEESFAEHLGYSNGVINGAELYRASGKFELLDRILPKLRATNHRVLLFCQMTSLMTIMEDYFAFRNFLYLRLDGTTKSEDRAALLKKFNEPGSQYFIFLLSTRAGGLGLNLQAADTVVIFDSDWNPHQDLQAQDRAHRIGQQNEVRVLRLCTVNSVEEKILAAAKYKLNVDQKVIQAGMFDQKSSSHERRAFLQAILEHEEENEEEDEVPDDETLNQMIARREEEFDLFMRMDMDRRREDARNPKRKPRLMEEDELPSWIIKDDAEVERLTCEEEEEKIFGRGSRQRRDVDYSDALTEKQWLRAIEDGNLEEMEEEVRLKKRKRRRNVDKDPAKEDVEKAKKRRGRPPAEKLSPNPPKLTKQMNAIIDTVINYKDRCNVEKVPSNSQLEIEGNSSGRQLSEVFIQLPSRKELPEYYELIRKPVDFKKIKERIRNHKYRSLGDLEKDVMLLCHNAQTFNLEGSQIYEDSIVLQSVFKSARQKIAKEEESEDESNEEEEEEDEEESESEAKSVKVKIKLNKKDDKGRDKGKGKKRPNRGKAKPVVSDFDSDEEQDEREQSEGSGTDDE

Regarding `Cc1ncsc1-c1ccc([C@H](C)NC(=O)[C@@H]2C[C@@H](O)CN2C(=O)[C@@H](c2cc(-c3cc(N4CC[C@@H](c5cc6nnc(-c7ccccc7O)cc6n5C5CC5)C4)ccn3)no2)C(C)C)cc1` (single isomer, unassigned) [Compound 91], the Dmax in assay [1] is under 50%. At HiBit-BRM fusion protein, the “BRM HiBit Degradation Maximum (%)” value is given as “A (“A” indicates maximum degradation ≥75%)” and the DC50 was over 10 nM.

As to `Cc1cc(-c2cc([C@H](C(=O)N3C[C@H](O)C[C@H]3C(=O)N[C@@H](C)c3ccc(-c4scnc4C)cc3)C(C)C)on2)cnc1N1CC[C@H](c2cc3nnc(-c4ccccc4O)cc3n2C2CC2)C1` (single isomer, unassigned) [Compound 110], in assay [1], the Dmax was under 50%. For the same molecule, at HiBit-BRM fusion protein, the “BRM HiBit Degradation Maximum (%)” value is “A (“A” indicates maximum degradation ≥75%)” and the DC50 is under 10 nM.

Turning to `Cc1ncsc1-c1ccc([C@H](C)NC(=O)[C@@H]2C[C@@H](O)CN2C(=O)[C@@H](c2cc(OCCN3CC(c4cc5nnc(-c6ccccc6O)cc5[nH]4)C3)no2)C(C)C)cc1` [Compound 1, (2S,4R)-4-hydroxy-1-[(2R)-2-[3-(2-{3-[3-(2-hydroxyphenyl)-5H-pyrrolo[3,2-c]pyridazin-6-yl]azetidin-1-yl}ethoxy)-1,2-oxazol-5-yl]-3-methylbutanoyl]-N-[(1S)-1-[4-(4-methyl-1,3-thiazol-5-yl)phenyl]ethyl]pyrrolidine-2-carboxamide], in assay [1], the Dmax was over 75% and the DC50 was over 100 nM. Also, on HiBit-BRM fusion protein, the “BRM HiBit Degradation Maximum (%)” value was “A (“A” indicates maximum degradation ≥75%)” and the DC50 was over 10 nM.

Take `Cc1ncsc1-c1ccc([C@H](C)NC(=O)[C@@H]2C[C@@H](O)CN2C(=O)[C@@H](c2cc(N(C)CCN3CC(c4cc5nnc(-c6ccccc6O)cc5[nH]4)C3)no2)C(C)C)cc1` [Compound 2, (2S,4R)-4-hydroxy-1-((R)-2-(3-((2-(3-(3-(2-hydroxyphenyl)-5H-pyrrolo[3,2-c]pyridazin-6-yl)azetidin-1-yl)ethyl)(methyl)amino)isoxazol-5-yl)-3-methylbutanoyl)-N-((S)-1-(4-(4-methylthiazol-5-yl)phenyl)ethyl)pyrrolidine-2-carboxamide]: the Dmax in assay [1] is under 50%. Also, at HiBit-BRM fusion protein, the “BRM HiBit Degradation Maximum (%)” value is given as “A (“A” indicates maximum degradation ≥75%)” and the DC50 is over 100 nM.

As to `Cc1ncsc1-c1ccc([C@H](C)NC(=O)[C@@H]2C[C@@H](O)CN2C(=O)[C@@H](c2cc(OCCCN3CC(c4cc5nnc(-c6ccccc6O)cc5[nH]4)C3)no2)C(C)C)cc1` [Compound 3, (2S,4R)-4-hydroxy-1-((R)-2-(3-(3-(3-(3-(2-hydroxyphenyl)-5H-pyrrolo[3,2-c]pyridazin-6-yl)azetidin-1-yl)propoxy)isoxazol-5-yl)-3-methylbutanoyl)-N-((S)-1-(4-(4-methylthiazol-5-yl)phenyl)ethyl)pyrrolidine-2-carboxamide, formic acid], at HiBit-BRM fusion protein, the “BRM HiBit Degradation Maximum (%)” value is given as “B (“B” indicates maximum degradation ≥50%)” and the DC50 was over 1000 nM.

As for `Cc1ncsc1-c1ccc([C@H](C)NC(=O)[C@@H]2C[C@@H](O)CN2C(=O)[C@@H](c2cc(N3CCC(CN4CC(c5cc6nnc(-c7ccccc7O)cc6[nH]5)C4)CC3)no2)C(C)C)cc1` [Compound 4, (2S,4R)-4-hydroxy-1-((R)-2-(3-(4-((3-(3-(2-hydroxyphenyl)-5H-pyrrolo[3,2-c]pyridazin-6-yl)azetidin-1-yl)methyl)piperidin-1-yl)isoxazol-5-yl)-3-methylbutanoyl)-N-((S)-1-(4-(4-methylthiazol-5-yl)phenyl)ethyl)pyrrolidine-2-carboxamide], in assay [1], the Dmax is over 50% and the DC50 is over 100 nM. Also, at HiBit-BRM fusion protein, the “BRM HiBit Degradation Maximum (%)” value is “A (“A” indicates maximum degradation ≥75%)” and the DC50 was over 10 nM.

Take `Cc1ncsc1-c1ccc([C@H](C)NC(=O)[C@@H]2C[C@@H](O)CN2C(=O)[C@@H](c2cc(N3CCC(N4CC(c5cc6nnc(-c7ccccc7O)cc6[nH]5)C4)CC3)no2)C(C)C)cc1` [Compound 5, (2S,4R)-4-hydroxy-1-((R)-2-(3-(4-(3-(3-(2-hydroxyphenyl)-5H-pyrrolo[3,2-c]pyridazin-6-yl)azetidin-1-yl)piperidin-1-yl)isoxazol-5-yl)-3-methylbutanoyl)-N-((S)-1-(4-(4-methylthiazol-5-yl)phenyl)ethyl)pyrrolidine-2-carboxamide]: in assay [1], the Dmax was over 75% and the DC50 was over 100 nM. Also, at HiBit-BRM fusion protein, the “BRM HiBit Degradation Maximum (%)” value is listed as “A (“A” indicates maximum degradation ≥75%)” and the DC50 is under 10 nM.

As for `Cc1ncsc1-c1ccc([C@H](C)NC(=O)[C@@H]2C[C@@H](O)CN2C(=O)[C@@H](c2cc(N3CCC(C(=O)N4CC(c5cc6nnc(-c7ccccc7O)cc6[nH]5)C4)CC3)no2)C(C)C)cc1` [Compound 6], in assay [1], the Dmax was over 75% and the DC50 was over 100 nM. For the same molecule, on HiBit-BRM fusion protein, the “BRM HiBit Degradation Maximum (%)” value is reported as “A (“A” indicates maximum degradation ≥75%)” and the DC50 was over 10 nM.

On to `Cc1ncsc1-c1ccc([C@H](C)NC(=O)[C@@H]2C[C@@H](O)CN2C(=O)[C@@H](c2cc(OCC(=O)N3CC(c4cc5nnc(-c6ccccc6O)cc5[nH]4)C3)no2)C(C)C)cc1` [Compound 7, (2S,4R)-4-hydroxy-1-((R)-2-(3-(2-(3-(3-(2-hydroxyphenyl)-5H-pyrrolo[3,2-c]pyridazin-6-yl)azetidin-1-yl)-2-oxoethoxy)isoxazol-5-yl)-3-methylbutanoyl)-N-((S)-1-(4-(4-methylthiazol-5-yl)phenyl)ethyl)pyrrolidine-2-carboxamide], for which, in assay [1], the Dmax is under 50%. On HiBit-BRM fusion protein, the “BRM HiBit Degradation Maximum (%)” value is on record as “A (“A” indicates maximum degradation ≥75%)” and the DC50 is over 100 nM.

In the case of `Cc1ncsc1-c1ccc([C@H](C)NC(=O)[C@@H]2C[C@@H](O)CN2C(=O)[C@@H](c2cc(OCCN3CC(c4cc5nnc(-c6ccccc6O)cc5n4C)C3)no2)C(C)C)cc1` [Compound 8, (2S,4R)-4-hydroxy-1-((R)-2-(3-(2-(3-(3-(2-hydroxyphenyl)-5-methyl-5H-pyrrolo[3,2-c]pyridazin-6-yl)azetidin-1-yl)ethoxy)isoxazol-5-yl)-3-methylbutanoyl)-N—((S)-1-(4-(4-methylthiazol-5-yl)phenyl)ethyl) pyrrolidine-2-carboxamide], in assay [1], the Dmax was over 75% and the DC50 is over 10 nM. In addition, on HiBit-BRM fusion protein, the “BRM HiBit Degradation Maximum (%)” value is recorded as “A (“A” indicates maximum degradation ≥75%)” and the DC50 was under 10 nM.

Regarding `Cc1ncsc1-c1ccc([C@H](C)NC(=O)[C@@H]2C[C@@H](O)CN2C(=O)[C@@H](c2cc(N3CCC(CN4CC(c5cc6nnc(-c7ccccc7O)cc6n5C)C4)CC3)no2)C(C)C)cc1` [Compound 9, (2S,4R)-4-hydroxy-1-((R)-2-(3-(4-((3-(3-(2-hydroxyphenyl)-5-methyl-5H-pyrrolo[3,2-c]pyridazin-6-yl)azetidin-1-yl)methyl)piperidin-1-yl)isoxazol-5-yl)-3-methylbutanoyl)-N-((S)-1-(4-(4-methylthiazol-5-yl)phenyl)ethyl)pyrrolidine-2-carboxamide], the Dmax in assay [1] is under 50%. On HiBit-BRM fusion protein, the “BRM HiBit Degradation Maximum (%)” value is listed as “A (“A” indicates maximum degradation ≥75%)” and the DC50 was over 10 nM.

On to `Cc1ncsc1-c1ccc([C@H](C)NC(=O)[C@@H]2C[C@@H](O)CN2C(=O)[C@@H](c2cc(N(C)CCN3CC(c4cc5nnc(-c6ccccc6O)cc5n4C)C3)no2)C(C)C)cc1` [Compound 10, (2S,4R)-4-hydroxy-1-((R)-2-(3-((2-(3-(3-(2-hydroxyphenyl)-5-methyl-5H-pyrrolo[3,2-c]pyridazin-6-yl)azetidin-1-yl)ethyl)(methyl)amino)isoxazol-5-yl)-3-methylbutanoyl)-N-((S)-1-(4-(4-methylthiazol-5-yl)phenyl)ethyl)pyrrolidine-2-carboxamide], for which, in assay [1], the Dmax is over 50% and the DC50 is over 1000 nM. For the same molecule, at HiBit-BRM fusion protein, the “BRM HiBit Degradation Maximum (%)” value is recorded as “A (“A” indicates maximum degradation ≥75%)” and the DC50 was over 10 nM.

For `Cc1ncsc1-c1ccc([C@H](C)NC(=O)[C@@H]2C[C@@H](O)CN2C(=O)[C@@H](c2cc(OCCCN3CC(c4cc5nnc(-c6ccccc6O)cc5n4C)C3)no2)C(C)C)cc1` [Compound 11, (2S,4R)-4-hydroxy-1-((R)-2-(3-(3-(3-(3-(2-hydroxyphenyl)-5-methyl-5H-pyrrolo[3,2-c]pyridazin-6-yl)azetidin-1-yl)propoxy)isoxazol-5-yl)-3-methylbutanoyl)-N-((S)-1-(4-(4-methylthiazol-5-yl)phenyl)ethyl)pyrrolidine-2-carboxamide], the Dmax in assay [1] is under 50%. For the same molecule, on HiBit-BRM fusion protein, the “BRM HiBit Degradation Maximum (%)” value is listed as “A (“A” indicates maximum degradation ≥75%)” and the DC50 is over 10 nM.
